System: p21^cip1 abundance in mock-infected LU cells
Assay: Western blot of p21cip1 abundance in mock-infected, density-arrested LU cells
Assay type: cell-based, human
Settings: E64d 100 μM, mock-infected cells
Method: Cell culture and growth arrest. LU cells (3) were propagated in Eagle's minimum essential medium containing 10% fetal bovine serum and penicillin (100 units/ml)/streptomycin (100 μg/ml) in a 5% CO2 in air atmosphere. The cells were density-arrested as described previously in detail (18).
Virus stocks and productive infection. The AD169 strain of HCMV was propagated in LU cells as previously described in detail (6). The infectivity of virus stocks was determined by plaque assay (3). Virus stocks typically had infectivities between 8.0×10^6 and 4.0×10^7 plaque-forming units (PFU)/milliliter. LU cells were infected with HCMV as described in detail by Bresnahan et al. (18). Virus stocks and cell cultures were routinely examined for mycoplasma.
Western blots. Polyclonal or monoclonal antibody for p21^cip1 was obtained from Santa Cruz Biotechnology, Inc. (Santa Cruz, Calif.). Monoclonal antibodies against m-calpain, μ-calpain or calpastatin were generously provided by Dr. R. I. Mellgren (see also 75). Cells were harvested as described previously (18) by dislodging the cells with a cell lifter in phosphate buffered saline. The cells were collected by sedimentation and lysed in NP-40 lysis buffer [50 mM Tris, pH 7.4, 50 mM NaCl, 0.5% NP-40, and 1 mM NaVO3, 50 mM NaF, 1mM phenylmethylsulfonyl fluoride (PMSF), 1 mM dithiothreitol (DTT), 25 μg/ml trypsin inhibitor, 25 μg/ml aprotinin, 1 mM benzamide, and 25 μg/ml pepstatin A added just before use]. Cellular debris was removed by sedimentation and the supernatant fluids were reserved. The protein concentration was determined by the BCA protein assay (Pierce, Rockford, Ill.). Whole cell extracts (40 μg/lane) were fractionated by SDS-polyacrylamide gel electrophoresis (PAGE), and the polypeptides were transferred to nitrocellulose membranes (Bio-Rad Laboratories, Hercules, Calif.) as described previously (18). Antigen-antibody reactions were detected with the enhanced chemiluminescent assay (Amersham Pharmacia Biotech) following the manufacturer's recommendations.
FIGS. 5 and 6. The effect of MG132, an inhibitor of proteasome degradation, on p21^cip1 abundance in HCMV- or mock-infected, density-arrested LU cells. 5. LU cells were density arrested, as described in Materials and Methods. The cell cultures were HCMV (5 PFU/cell)- or mock-infected and then exposed to selected concentrations of MG132 at 24 hr PI. Cell lysates were prepared at 30 hr PI (i.e., 6 hr after […] treatment), and 40 μg of protein from each lysate was resolved by SDS-PAGE. The proteins were transferred to nitrocellulose and probed with antibodies against p21^cip1. Control, cells cultured in the absence of MG132 or its solvent, DMSO. 0, DMSO solvent control, consisting of cells treated with the same concentration of DMSO (0.1%) present in the cultural fluids containing highest concentration of MG132 (10 μM). 6. Represents the abundance of p21^cip1 after MG132 treatment determined by densitometry of the data illustrated in FIG. 5. The data for mock-infected cells (open bars) were calculated relative to the p21^cip1 abundance in untreated mock-infected cells, while the data for HCMV-infected cells (closed bars) were determined relative to the p21^cip1 abundance in untreated HCMV-infected cells.
FIGS. 7 and 8. […]
At the times indicated in the FIG., whole cell lysates were prepared, and 40 μg of protein from each lysate was analyzed by SDS-PAGE. […]

In the case of CC(C)C[C@H](NC(=O)[C@H]1O[C@@H]1C(=O)O)C(=O)NCCCCN=C(N)N (relative stereo) [E64d, trans-epoxysuccinyl-L-leucylamido (4-guanidino)-butane], the “effect on p21^cip1 levels in mock-infected cells (in words)” value is reported as “little, if any, effect” and the “increase in p21^cip1” value (3 hr post-treatment (treatment from 48 hr PI)) is reported as roughly 56%.
